System: Subjects With Active Crohn's Disease
Test: LDL determination, Study 5 (Crohn's disease)
Format: in vivo, human
Settings: for [LDL] Mean CFB - 10 weeks results / [LDL] Median CFB - 10 weeks results / [LDL] Mean CFB: 200 mg q.d.; for [LDL] Mean CFB: Study 5 10 weeks results
Source text: Double-Blind, Randomized, Placebo-Controlled, Multi-Centre Study to Investigate the Efficacy and Safety of Compound 1 in Subjects With Active Crohn's Disease With Evidence of Mucosal Ulceration.
This is a double-blind, randomized, placebo-controlled, multi-centre Phase 2 study to investigate the efficacy and safety of Compound 1 administered once daily for the treatment of active CD with evidence of mucosal ulceration. The pharmacokinetics (including a PK substudy) and pharmacodynamics of Compound 1 and metabolite in CD will also be characterised.
A total of 180 eligible subjects will be randomized to receive Compound 1 or placebo in addition to their stable background treatment (eg, corticosteroids, aminosalicylates, or CD-related antibiotics). The study will consist of 2 parts, with total treatment duration of 20 weeks. Randomization in Part 1 will be stratified according the subject's previous anti-TNF exposure/response, CRP level at Screening, and oral corticosteroid use at visit Day −1.
After the first 10 weeks of treatment in Part 1, patients will be re-randomized for Part 2 as shown in the diagram below and will be stratified according to the subject's clinical response, previous anti-TNF exposure/response, and oral corticosteroid use at visit Day −1.
The following assays were conducted at Eurofins Global Central Laboratory, Bergschot 71, 4817 PA Breda, The Netherlands, and at Quest Diagnostics, Clinical Trials, Quest House, 125-135 Staines Road, Hounslow, Middlesex, TW3 3JB, United Kingdom. The assays for Study 5 were performed at BARC Europe, 3B, Industrie Park, Zwijnaarde, B-9052 Ghent, Belgium.
The determination of [LDL]-cholesterol is made using an automated method taking advantage of the selective micellary solubilization of [LDL]-cholesterol by a nonionic detergent and the interaction of a sugar compound and lipoproteins (VLDL and chylomicrons).
When a detergent is included in the enzymatic method for cholesterol determination (cholesterol esterase, cholesterol oxidase coupling reaction), the relative reactivities of cholesterol in the lipoprotein fractions increase in this order: [HDL]<chylomicrons <VLDL <[LDL]. In the presence of Mg^2+, a sugar compound markedly reduces the enzymatic reaction of the cholesterol measurement in VLDL and chylomicrons. The combination of a sugar compound with detergent enables the selective determination of [LDL]-cholesterol in serum. (Friedewald et al., 1972; Rifai et al., 1992)
Homogeneous enzymatic colorimetric assay.
In the presence of peroxidase, the hydrogen peroxide generated reacts with 4-aminoantipyrine and Sodium N-(2-hydroxy-3-sulfopropyl)-3,5-dimethoxyaniline (HSDA) to form a purple-blue dye.
The color intensity of this dye is directly proportional to the cholesterol concentration and is measured photometrically.
Human serum and plasma samples [LDL] determination was done on a Roche/Hitachi Cobas c 701/702 system which automatically calculate the analyte concentration of each sample. Samples containing precipitates are centrifuged before performing the assay.

[1] = 200 mg q.d. week 0 to 10, to 100 mg q.d. week 10 to 20, week 16
[2] = 200 mg q.d. week 0 to 10, to 100 mg q.d. week 10 to 20, week 20
[3] = 200 mg q.d. week 0 to 10, to placebo week 10 to 20, week 2
[4] = 200 mg q.d. week 0 to 10, to placebo week 10 to 20, week 4
[5] = 200 mg q.d. week 0 to 10, to placebo week 10 to 20, week 6
[6] = 200 mg q.d. week 0 to 10, to placebo week 10 to 20, week 10
[7] = 200 mg q.d. week 0 to 10, to placebo week 10 to 20, week 12
[8] = 200 mg q.d. week 0 to 10, to placebo week 10 to 20, week 16
[9] = 200 mg q.d. week 0 to 10, to placebo week 10 to 20, week 20
[10] = continued 200 mg q.d. (N = 77), week 2
[11] = continued 200 mg q.d. (N = 77), week 4
[12] = continued 200 mg q.d. (N = 77), week 6
[13] = continued 200 mg q.d. (N = 77), week 10
[14] = continued 200 mg q.d. (N = 77), week 12
[15] = continued 200 mg q.d. (N = 77), week 16
[16] = continued 200 mg q.d. (N = 77), week 20
[17] = placebo week 0 to 10, then 100 mg q.d. (N = 22), week 12
[18] = placebo week 0 to 10, then 100 mg q.d. (N = 22), week 16
[19] = placebo week 0 to 10, then 100 mg q.d. (N = 22), week 20
[20] = placebo week 0 to 10, to 100 mg q.d. week 10 to 20, week 12
[21] = placebo week 0 to 10, to 100 mg q.d. week 10 to 20, week 16
[22] = placebo week 0 to 10, to 100 mg q.d. week 10 to 20, week 20

O=C(Nc1nc2cccc(-c3ccc(CN4CCS(=O)(=O)CC4)cc3)n2n1)C1CC1 [Compound 1, cyclopropanecarboxylic acid {5-[4-(1,1-dioxo-thiomorpholin-4-ylmethyl)-phenyl]-[1,2,4]triazolo[1,5-a]pyridin-2yl}-amide]
[LDL] Mean CFB - 20 weeks results [1]: 2.18%
[LDL] Median CFB - 20 weeks results [1]: −1.36%
[LDL] Mean CFB - 20 weeks results [2]: 2.73%
[LDL] Median CFB - 20 weeks results [2]: 1.65%
[LDL] Mean CFB - 20 weeks results [3]: 2.69%
[LDL] Median CFB - 20 weeks results [3]: 0.71%
[LDL] Mean CFB - 20 weeks results [4]: 1.85%
[LDL] Median CFB - 20 weeks results [4]: 2.44%
[LDL] Mean CFB - 20 weeks results [5]: 3.72%
[LDL] Median CFB - 20 weeks results [5]: 3.51%
[LDL] Mean CFB - 20 weeks results [6]: 4.43%
[LDL] Median CFB - 20 weeks results [6]: 1.84%
[LDL] Mean CFB - 20 weeks results [7]: 4.55%
[LDL] Median CFB - 20 weeks results [7]: 6.33%
[LDL] Mean CFB - 20 weeks results [8]: 10.32%
[LDL] Median CFB - 20 weeks results [8]: 6.34%
[LDL] Mean CFB - 20 weeks results [9]: 6.12%
[LDL] Median CFB - 20 weeks results [9]: 5.24%
[LDL] Mean CFB - 10 weeks results (week 2): 2.833%
[LDL] Median CFB - 10 weeks results (week 2): −1.469%
[LDL] Mean CFB - 10 weeks results (week 4): 1.997%
[LDL] Median CFB - 10 weeks results (week 4): −1.986%
[LDL] Mean CFB - 10 weeks results (week 6): 1.743%
[LDL] Median CFB - 10 weeks results (week 6): 0.992%
[LDL] Mean CFB - 10 weeks results (week 10): 10.126%
[LDL] Median CFB - 10 weeks results (week 10): 6.299%
[LDL] Mean CFB (week 2): 0.025 mmol/L
[LDL] Mean CFB (week 4): -0.030 mmol/L
[LDL] Mean CFB (week 6): -0.012 mmol/L
[LDL] Mean CFB (week 10): 0.150 mmol/L
[LDL] Mean CFB - 20 weeks results [10]: 0.04 mmol/L
[LDL] Median CFB - 10 weeks results 20 weeks results [10]: -0.05 mmol/L
[LDL] Mean CFB - 20 weeks results [11]: -0.05 mmol/L
[LDL] Median CFB - 10 weeks results 20 weeks results [11]: -0.05 mmol/L
[LDL] Mean CFB - 20 weeks results [12]: -0.05 mmol/L
[LDL] Median CFB - 10 weeks results 20 weeks results [12]: -0.02 mmol/L
[LDL] Mean CFB - 20 weeks results [13]: 0.20 mmol/L
[LDL] Median CFB - 10 weeks results 20 weeks results [13]: 0.18 mmol/L
[LDL] Mean CFB - 20 weeks results [14]: 0.14 mmol/L
[LDL] Median CFB - 10 weeks results 20 weeks results [14]: 0.15 mmol/L
[LDL] Mean CFB - 20 weeks results [15]: 0.21 mmol/L
[LDL] Median CFB - 10 weeks results 20 weeks results [15]: 0.19 mmol/L
[LDL] Mean CFB - 20 weeks results [16]: 0.22 mmol/L
[LDL] Median CFB - 10 weeks results 20 weeks results [16]: 0.18 mmol/L
[LDL] Mean CFB - 20 weeks results [17]: 0.09 mmol/L
[LDL] Median CFB - 10 weeks results 20 weeks results [17]: 0.07 mmol/L
[LDL] Mean CFB - 20 weeks results [18]: 0.05 mmol/L
[LDL] Median CFB - 10 weeks results 20 weeks results [18]: -0.06 mmol/L
[LDL] Mean CFB - 20 weeks results [19]: 0.06 mmol/L
[LDL] Median CFB - 10 weeks results 20 weeks results [19]: 0.03 mmol/L
[LDL] Mean CFB - 20 weeks results [20]: 4.07%
[LDL] Median CFB - 20 weeks results [20]: 2.14%
[LDL] Mean CFB - 20 weeks results [21]: 5.28%
[LDL] Median CFB - 20 weeks results [21]: −2.00%
[LDL] Mean CFB - 20 weeks results [22]: 7.29%
[LDL] Median CFB - 20 weeks results [22]: 1.90%

Source: patent US10376520B2, “Methods for the treatment of cardiovascular disorders” (Galapagos NV, priority 2015, dated 2019)
